Assays:
[1] = tested on: transgenic rice containing 35S/als transgene; settings: cited from earlier work
[2] = tested on: AHAS (acetohydroxyacid synthase) in extracts of Nortai, Line 26 and Line 29; assay: In vitro AHAS activity assay; type: biochemical, rice; settings: Nt, Line 26, Line 29; FIG. 2
Method: Previously published procedures were used for the extraction and in vitro assay for AHAS activity (Singh et al. 1988). Lower portions of the shoots were used as the source of plant tissue for the assay. The desalted crude extracts were used for the in vitro enzyme assays. Acetolactate produced by the enzyme was converted to acetoin, which was measured by the Westerfield assay system.
In vitro AHAS assays were performed to understand the basis of herbicide tolerance in the transgenic plants. Previously published procedure was used for the extraction and in vitro assay for AHAS activity (Singh et al. 1988). The lower portions of the shoots were used as the source of plant tissue for the assay. The desalted crude extracts were used for the in vitro enzyme assays. Acetolactate produced by the enzyme was converted to acetoin, which was measured by the Westerfield assay system (Westerfield 1945). The specific activity of AHAS was about 30% higher in Line 26 (67 nmoles/mg protein/h) and Line 29 (64 nmoles/mg protein/h) compared to the activity in Nortai (Nt) (50 nmoles/mg protein/h).

COc1nc(C)nc(NC(=O)NS(=O)(=O)c2ccccc2Cl)n1 [chlorsulfuron]
differences in in vitro resistance ([1]; Arabidopsis ALS promoter replaced with CaMV35S promoter (Li et al. 1992)): 40 fold | increase in in vitro resistance ([1]; transgenic rice containing 35S/als transgene (Li et al. 1992)): 200 fold | inhibition of AHAS activity from all three lines [2]: inhibited in a similar manner

— patent publication US6653529B2, “Use of the maize X112 mutant ahas 2 gene and imidazolinone herbicides for selection of transgenic monocots, maize, rice and wheat plants resistant to the imidazolinone herbicides” (BASF Aktiengesellschaft, priority 2000, dated 2003)
